In brackets after ≈: the same amount, converted by molar mass.
What was measured:
E coli = experiment: MIC assay, E coli; type: cell-based
H. flu = type: cell-based, H. influenza; conditions: H. flu
S. aureus = experiment: MIC assay, S. aureus; type: cell-based, Staphylococcus aureus
S. pneumo. = experiment: MIC assay, S. pneumo.; type: cell-based, Streptococcus pneumoniae
E. faecalis = experiment: MIC assay, E. faecalis; type: cell-based, Enterococcus faecalis

Row | SMILES | MIC (μg/mL) E coli (E coli) | MIC (μg/mL) H. flu (H. flu) | MIC (μg/mL) S. aureus (S. aureus) | MIC (μg/mL) S. pneumo. (S. pneumo.) | MIC (μg/mL) E. faecalis (E. faecalis)
1 | CCCNC(=O)NC1CCN(c2cc(O)c3nc4c5c6c7c(C)c(O)c5c(=O)c(c-4oc3c2)NC(=O)/C(C)=C\C=C\[C@H](C)[C@H](O)[C@@H](C)[C@@H](O)[C@@H](C)[C@H](OC(C)=O)[C@H](C)[C@@H](OC)/C=C/O[C@@](C)(O7)C6=O)CC1 [Compound 28, 3′-hydroxy-5′-[4-propyluryl-1-piperidinyl]benzoxazinorifamycin] | >8 µg/mL | 0.25 µg/mL (≈ 254 nM) | 0.03 µg/mL (≈ 30.5 nM) | 0.002 µg/mL (≈ 2.03 nM) | 1 µg/mL (≈ 1020 nM)
2 | CO[C@H]1/C=C/O[C@@]2(C)Oc3c(C)c(O)c4c(=O)c(c5oc6cc(N7CCC(NC(=O)OC(C)C)CC7)cc(O)c6nc-5c4c3C2=O)NC(=O)/C(C)=C\C=C\[C@H](C)[C@H](O)[C@@H](C)[C@@H](O)[C@@H](C)[C@H](O)[C@@H]1C [Compound 29] | >8 µg/mL | 1 µg/mL (≈ 1060 nM) | 0.008 µg/mL (≈ 8.48 nM) | 0.00012 µg/mL (≈ 0.127 nM) | 2 µg/mL (≈ 2120 nM)
3 | CCOC(=O)NC1CCN(c2ccc3nc4c5c6c7c(C)c(O)c5c(=O)c(c-4n(C)c3c2)NC(=O)/C(C)=C\C=C\[C@H](C)[C@H](O)[C@@H](C)[C@@H](O)[C@@H](C)[C@H](O)[C@H](C)[C@@H](OC)/C=C/O[C@@](C)(O7)C6=O)CC1 [Compound 31] | 8 µg/mL (≈ 8640 nM) | 0.25 µg/mL (≈ 270 nM) | 0.03 µg/mL (≈ 32.4 nM) | 0.0005 µg/mL (≈ 0.54 nM) | 0.25 µg/mL (≈ 270 nM)
4 | CO[C@H]1/C=C/O[C@@]2(C)Oc3c(C)c(O)c4c(=O)c(c5oc6cc(N7CCC(N)CC7)cc(O)c6nc-5c4c3C2=O)NC(=O)/C(C)=C\C=C\[C@H](C)[C@H](O)[C@@H](C)[C@@H](O)[C@@H](C)[C@H](OC(C)=O)[C@@H]1C [Compound 33, 3′-hydroxy-5′-[4-amino-1-piperidinyl]benzoxazinorifamycin] | >8 µg/mL | 1 µg/mL (≈ 1110 nM) | 0.008 µg/mL (≈ 8.9 nM) | 0.00006 µg/mL (≈ 0.0667 nM) | 1 µg/mL (≈ 1110 nM)
5 | CCNC(=O)NC1CCN(c2cc(O)c3nc4c5c6c7c(C)c(O)c5c(=O)c(c-4oc3c2)NC(=O)/C(C)=C\C=C\[C@H](C)[C@H](O)[C@@H](C)[C@@H](O)[C@@H](C)[C@H](OC(C)=O)[C@H](C)[C@@H](OC)/C=C/O[C@@](C)(O7)C6=O)CC1 [Compound 34, 3′-hydroxy-5′-[4-ethyluryl-1-piperidinyl]benzoxazinorifamycin] | 8 µg/mL (≈ 8250 nM) | 0.5 µg/mL (≈ 515 nM) | 0.03 µg/mL (≈ 30.9 nM) | 0.001 µg/mL (≈ 1.03 nM) | 2 µg/mL (≈ 2060 nM)
6 | CCCS(=O)(=O)NC1CCN(c2cc(O)c3nc4c5c6c7c(C)c(O)c5c(=O)c(c-4oc3c2)NC(=O)C(C)=CC=CC(C)C(O)C(C)C(O)C(C)C(OC(C)=O)C(C)C(OC)C=COC(C)(O7)C6=O)CC1 (centres unmarked) [Compound 35] | 8 µg/mL (≈ 7960 nM) | 0.5 µg/mL (≈ 497 nM) | 0.015 µg/mL (≈ 14.9 nM) | 0.00025 µg/mL (≈ 0.249 nM) | 4 µg/mL (≈ 3980 nM)
7 | CCCC(=O)NC1CCN(c2cc(O)c3nc4c5c6c7c(C)c(O)c5c(=O)c(c-4oc3c2)NC(=O)C(C)=CC=CC(C)C(O)C(C)C(O)C(C)C(O)C(C)C(OC)C=COC(C)(O7)C6=O)CC1 (centres unmarked) [Compound 36, 25-O-deacetyl-3′-hydroxy-5′-[4-butanamide-1-piperidinyl]benzoxazinorifamycin] | >8 µg/mL | 0.25 µg/mL (≈ 270 nM) | 0.004 µg/mL (≈ 4.31 nM) | 0.00003 µg/mL (≈ 0.0324 nM) | 2 µg/mL (≈ 2160 nM)
8 | CCNC(=O)NC1CCN(c2cc(O)c3nc4c5c6c7c(C)c(O)c5c(=O)c(c-4oc3c2)NC(=O)C(C)=CC=CC(C)C(O)C(C)C(O)C(C)C(O)C(C)C(OC)C=COC(C)(O7)C6=O)CC1 (centres unmarked) [Compound 37, 25-O-deacetyl-3′-hydroxy-5′-[4-ethyluryl-1-piperidinyl]benzoxazinorifamycin] | >8 µg/mL | 0.25 µg/mL (≈ 269 nM) | 0.03 µg/mL (≈ 32.3 nM) | 0.004 µg/mL (≈ 4.31 nM) | 2 µg/mL (≈ 2160 nM)
9 | COC1C=COC2(C)Oc3c(C)c(O)c4c(=O)c(c5oc6cc(N7CCC(NS(=O)(=O)C(F)(F)F)CC7)cc(O)c6nc-5c4c3C2=O)NC(=O)C(C)=CC=CC(C)C(O)C(C)C(O)C(C)C(O)C1C (centres unmarked) [Compound 38] | >8 µg/mL | 0.25 µg/mL (≈ 253 nM) | 0.12 µg/mL (≈ 121 nM) | 0.015 µg/mL (≈ 15.2 nM) | 8 µg/mL (≈ 8090 nM)
10 | COC1C=COC2(C)Oc3c(C)c(O)c4c(=O)c(c5oc6cc(N7CCC(N)CC7)cc(O)c6nc-5c4c3C2=O)NC(=O)C(C)=CC=CC(C)C(O)C(C)C(O)C(C)C(O)C1C (centres unmarked) [Compound 39, 25-O-deacetyl-3′-hydroxy-5′-[4-amino-1-piperidinyl]benzoxazinorifamycin] | >8 µg/mL | 0.25 µg/mL (≈ 292 nM) | 0.03 µg/mL (≈ 35 nM) | 0.001 µg/mL (≈ 1.17 nM) | 2 µg/mL (≈ 2330 nM)
11 | COCCOC(=O)NC1CCN(c2cc(O)c3nc4c5c6c7c(C)c(O)c5c(=O)c(c-4oc3c2)NC(=O)C(C)=CC=CC(C)C(O)C(C)C(O)C(C)C(OC(C)=O)C(C)C(OC)C=COC(C)(O7)C6=O)CC1 (centres unmarked) [Compound 41, 3′-hydroxy-5′-[4-methoxyethylcarbamyl-1-piperidinyl]benzoxazinorifamycin] | >8 µg/mL | 2 µg/mL (≈ 2000 nM) | 0.25 µg/mL (≈ 250 nM) | 0.0005 µg/mL (≈ 0.499 nM) | >8 µg/mL
12 | COC1C=COC2(C)Oc3c(C)c(O)c4c(=O)c(c5oc6cc(N7CCC(NC(C)=O)CC7)cc(O)c6nc-5c4c3C2=O)NC(=O)C(C)=CC=CC(C)C(O)C(C)C(O)C(C)C(O)C1C (centres unmarked) [Compound 43, 25-O-deacetyl-3′-hydroxy-5′-[4-acetamide-1-piperidinyl]benzoxazinorifamycin] | >8 µg/mL | 0.5 µg/mL (≈ 556 nM) | 0.03 µg/mL (≈ 33.4 nM) | 0.002 µg/mL (≈ 2.22 nM) | 2 µg/mL (≈ 2220 nM)
13 | COC1C=COC2(C)Oc3c(C)c(O)c4c(=O)c(c5oc6cc(N7CCC(NC(C)=O)CC7)cc(O)c6nc-5c4c3C2=O)NC(=O)C(C)=CC=CC(C)C(O)C(C)C(O)C(C)C(OC(C)=O)C1C (centres unmarked) [Compound 44] | >8 µg/mL | 0.25 µg/mL (≈ 266 nM) | 0.06 µg/mL (≈ 63.8 nM) | 0.008 µg/mL (≈ 8.5 nM) | 2 µg/mL (≈ 2130 nM)

Source: US7271165B2, “Rifamycin analogs and uses thereof” (priority 2003, dated 2007)
